Reference: patent publication US20260374794A1, “COMPOUNDS TARGETING MUTANT OF P53” (JACOBIO PHARMACEUTICALS CO., LTD., priority 2022, published 2026)
pEC50, pIC50: −log10 of the molar value. Read-outs that look alike come from different tables or passages of the source.

How the values were obtained:
[1] = target: p53(Y220C)_NUGC-3 (Homo sapiens, UniProt P04637, Y220C); test: Reporter gene assay (NUGC-3_P53_Luc cells); format: cell-based; conditions: 6 hours, 37 °C, luciferase, normalized to Ref-1a 10 μM, EC50 = concentration at 50% Activity, read-out: p53(Y220C)_NUGC-3 EC50
Protocol: NUGC-3_P53_Luc single clonal cell line was established using pGL4.38[luc2P/p53 RE/Hygro] Vector (E365A, promega). NUGC-3_P53_Luc single clonal cells were cultured in 37 °C cell incubator before use. NUGC-3_P53_Luc cells were collected and washed twice with PBS to remove phenol red and then resuspended in medium to a proper concentration. Tested compound dilutions were transferred into 384 well assay plates (PerkinElmer). A desired number of cells was seeded into the assay plate and cultured for 6 hours at 37 °C cell incubator. Britelite plus Luciferase Assay Reagent were added into each well and the luminescence value was recorded on Envision. The percent of activity value of compounds treated wells was normalized between high control and low control. Wells containing cells and Ref-la (10 μM) served as high control, and wells containing cells and same percentage of DMSO served as low control. Activity value (%)=(Luminescence readoutCompound treated−Luminescence readoutLow control)/(Luminescence readoutHigh control−Luminescence readoutLow control)*100%. Then the data were analyzed either by fitting a 4-parameter logistic model or by Excel to calculate EC50 values and the EC50 was the concentration at 50% Activity on the curve.

[2] = target: T1, p53(Y220C) (Homo sapiens, UniProt P04637, Y220C); test: In vitro DNA binding assay (HTRF), His-p53 Y220C (94-294) with biotinylated p53 consensus DNA; format: biochemical
T1 construct: His-p53 Y220C (94-294) protein
Protocol: After His-p53 Y220C (94-294) protein was placed with a compound in the present of MAb Anti His-Tb cryptate (Cisbio, Cat. NO. 61HI2TLA) in a 384 well microplate (Greiner) for 15 min at 25 °C, the assay plate was transferred into 27 °C incubator and incubated for 60 min. Biotinalyted p53 consensus DNA (ID: p53-SEQUENCE 2 —F: 5′(biotin)-[…] 3′ —R: 5′ […] 3′) was added into the assay plate in the present of Streptaidin-d2 (Cisbio, Cat. NO. 610SADLF) cryptate (Final concentration: 20 mM HEPES pH=7.4, 75 mM KCl, 1 mM MgCl2, 0.1% (w/v) BSA, 1 mM DTT, 2.5 nM His-P53 Y220C (94-294) protein, 0.33 nM MAb Anti His-Tb cryptate, 2.5 nM Streptaidin-d2 cryptate, 10 nM Biotinalyted DNA) and incubated for another 60 min. Wells containing 2 μM reference compound Ref-1a served as high control, and wells containing same percentage of DMSO served as low control. Homogeneous time-resolved fluorescence (HTRF) signals were read on Tecan Spark multimode microplate reader. HTRF ratios for each individual well were calculated by equation: HTRF ratio=(Signal F665/Signal F620)*1000. The percent of activation of compounds treated wells were normalized between high control and low control (% Activation=(HTRF ratiocompound treated−HTRF ratiolow control)/(HTRF ratiohigh control−HTRF ratiolow control)*100%). Then the data were analyzed either by fitting a 4-parameter logistic model or by Excel to calculate EC50 values. And the EC50 was the concentration at 50% Activation on the curve.

[3] = system: NUGC-3 (P53 Y220C); test: Cell viability assay (CellTiter-Glo); format: cell-based; conditions: Homo sapiens, 144 h, NUGC-3 cells, 6 days, 37 °C
Protocol: Cells were collected and counted. A desired number of cells was seeded into 96-well microplate and cultured in 37 °C cell incubator overnight. Compounds dissolved in cell culture medium were added into cell plate and cultured for 6 days. After balancing CellTiter-Glo reagent and cells at room temperature for 30 min, equal volume of CellTiter-Glo reagents was added to assay plate and shaken for 2 min for cell lysis. The cells were balanced at room temperature for 10 minutes and Luminescence signal was read using Envision. The percent of cell viability for compounds treated wells were normalized between High control and low control. Wells containing cell culture medium and same percentage DMSO served as Low control. Wells containing cells and same percentage DMSO served as High control. Cell viability (%)=(Luminescence readoutCompound treated−Luminescence readoutLow control)/(Luminescence readoutHigh control−Luminescence readoutLow control)*100%. Then the data were analyzed either by fitting a 4-parameter logistic model or by Excel to calculate IC50 values. And the IC50 was the concentration at […] Cell viability on the curve.

[4] = HTRF, 27 °C, His-p53 Y220C (94-294) 2.5 nM, biotinylated DNA 10 nM, normalized to 2 μM Ref-1a, EC50 = concentration at 50% Activation, read-out: p53(Y220C) EC50

Row | SMILES | pEC50 [1] | pEC50 [2, 4] | other results
1 | COc1cc(P(C)(C)=O)ccc1NCC#Cc1sc2c(N[C@@H]3CC[N@@+](C)([O-])C[C@@H]3F)cccc2c1CC(F)(F)F (single isomer, unassigned) [Example 7] | 5.40 | 7.09 | 
2 | COc1cc([S@](C)(=N)=O)ccc1NCC#Cc1sc2c(N[C@@H]3CC[N@+](C)([O-])C[C@@H]3F)cccc2c1CC(F)(F)F (single isomer, unassigned) [Example 8] | 5.14 | 7.42 | 
3 | COc1cc([S@](C)(=N)=O)ccc1NCC#Cc1sc2c(N[C@@H]3CC[N@@+](C)([O-])C[C@@H]3F)cccc2c1CC(F)(F)F (single isomer, unassigned) [Example 9] | 5.72 | 7.21 | 
4 | COc1cc(P(C)(C)=O)ccc1NCC#Cc1sc2c(N[C@@H]3CC[N@+](C)([O-])C[C@@H]3F)cccc2c1CC(F)(F)F (single isomer, unassigned) [Example 10] | 4.95 | 7.28 | 
5 | CN1CC[C@@H](Nc2cccc3c(CC(F)(F)F)c(C#CCNc4ccc(P(C)(C)=O)c5ccoc45)sc23)[C@@H](F)C1 [Example 2, (7-((3-(7-(((3S,4R)-3-fluoro-1-methylpiperidin-4-yl)amino)-3-(2,2,2-trifluoroethyl)benzo[b]thiophen-2-yl)prop-2-yn-1-yl)amino)benzofuran-4-yl)dimethylphosphine oxide] | 6.71 |  | 
6 | CN1CC[C@@H](Nc2cccc3c(CC(F)(F)F)c(C#CCNc4ccc(P(C)(C)=O)cc4-c4cc[nH]n4)sc23)[C@@H](F)C1 [Example 3, (4-((3-(7-(((3S,4R)-3-fluoro-1-methylpiperidin-4-yl)amino)-3-(2,2,2-trifluoroethyl)benzo[b]thiophen-2-yl)prop-2-yn-1-yl)amino)-3-(1H-pyrazol-3-yl)phenyl)dimethylphosphine oxide] | 7.26 |  | pIC50 [3]: 5.85
7 | COc1cc(P(C)(C)=O)ccc1NCC#Cc1sc2c(NC3CN(C)CC3F)cccc2c1CC(F)(F)F (centres unmarked) [Example 13, (4-((3-(7-((4-fluoro-1-methylpyrrolidin-3-yl)amino)-3-(2,2,2-trifluoroethyl)benzo[b]thiophen-2-yl)prop-2-yn-1-yl)amino)-3-methoxyphenyl)dimethylphosphine oxide] | 6.86 | 6.98 | pIC50 [3]: 5.86
8 | COc1cc([S@@](=N)(=O)C(C)C)ccc1NCC#Cc1sc2c(N[C@@H]3CCN(C)C[C@@H]3F)cccc2c1CC(F)(F)F [Example 27, (S)-(4-((3-(7-(((3S,4R)-3-fluoro-1-methylpiperidin-4-yl)amino)-3-(2,2,2-trifluoroethyl)benzo[b]thiophen-2-yl)prop-2-yn-1-yl)amino)-3-methoxyphenyl)(imino)(isopropyl)-16-sulfanone] |  | 7.13 | 
9 | COc1cc(P(C)(C)=O)ccc1NCC#Cc1sc2c(N[C@H]3CCCN(C)C3)cccc2c1CC(F)(F)F [Example 29, (S)-(3-methoxy-4-((3-(7-((1-methylpiperidin-3-yl)amino)-3-(2,2,2-trifluoroethyl)benzo[b]thiophen-2-yl)prop-2-yn-1-yl)amino)phenyl)dimethylphosphine oxide] |  | 6.81 | 
10 | COc1cc(P(C)(C)=O)ccc1NCC#Cc1sc2c(N[C@H]3CCN(C)C[C@H]3F)cccc2c1[C@H](O)C(F)(F)F [Example 32, (4-((3-(7-(((3R,4S)-3-fluoro-1-methylpiperidin-4-yl)amino)-3-((S)-2,2,2-trifluoro-1-hydroxyethyl)benzo[b]thiophen-2-yl)prop-2-yn-1-yl)amino)-3-methoxyphenyl)dimethylphosphine oxide] |  | 6.93 | 
11 | COc1cc(S(C)(=O)=O)ccc1NCC#Cc1sc2c(N[C@H]3CCN(C)C[C@H]3F)cccc2c1CC(F)(F)F [Example 35, (3R,4S)-3-fluoro-N-(2-(3-((2-methoxy-4-(methylsulfonyl)phenyl)amino)prop-1-yn-1-yl)-3-(2,2,2-trifluoroethyl)benzo[b]thiophen-7-yl)-1-methylpiperidin-4-amine] |  | 6.72 | 
12 | COc1cc(P(C)(C)=O)ccc1NCC#Cc1sc2c(N[C@H]3CCN(C)C[C@@H]3F)cccc2c1CC(F)(F)F [Example 38, (4-((3-(7-(((3S,4S)-3-fluoro-1-methylpiperidin-4-yl)amino)-3-(2,2,2-trifluoroethyl)benzo[b]thiophen-2-yl)prop-2-yn-1-yl)amino)-3-methoxyphenyl)dimethylphosphine oxide] |  | 6.43 | 
13 | CN1CC[C@@H](Nc2cccc3c(CC(F)(F)F)c(C#CCNc4ccc(P(C)(C)=O)cc4-c4nc(=O)o[nH]4)sc23)[C@@H](F)C1 [Example 39, 3-(5-(dimethylphosphoryl)-2-((3-(7-(((3S,4R)-3-fluoro-1-methylpiperidin-4-yl)amino)-3-(2,2,2-trifluoroethyl)benzo[b]thiophen-2-yl)prop-2-yn-1-yl)amino)phenyl)-1,2,4-oxadiazol-5(2H)-one] |  | 6.53 | 
14 | COc1cc(-c2nc(=O)o[nH]2)ccc1NCC#Cc1sc2c(N[C@@H]3CCN(C)C[C@@H]3F)cccc2c1CC(F)(F)F [Example 40, 3-(4-((3-(7-(((3S,4R)-3-fluoro-1-methylpiperidin-4-yl)amino)-3-(2,2,2-trifluoroethyl)benzo[b]thiophen-2-yl)prop-2-yn-1-yl)amino)-3-methoxyphenyl)-1,2,4-oxadiazol-5(2H)-one] |  | 6.33 | 
15 | COc1cc(P(C)(C)=O)ccc1NCC#Cc1sc2c(N[C@H]3CN4CCC3CC4)cccc2c1CC(F)(F)F [Example 46, (R)-(3-methoxy-4-((3-(7-(quinuclidin-3-ylamino)-3-(2,2,2-trifluoroethyl)benzo[b]thiophen-2-yl)prop-2-yn-1-yl)amino)phenyl)dimethylphosphine oxide] |  |  | pEC50 [2]: 6.91
16 | [2H]C([2H])([2H])Oc1cc(P(C)(C)=S)ccc1NCC#Cc1sc2c(N[C@@H]3CCN(C)C[C@@H]3F)cccc2c1CC(F)(F)F [Example 47, (4-((3-(7-(((3S,4R)-3-fluoro-1-methylpiperidin-4-yl)amino)-3-(2,2,2-trifluoroethyl)benzo[b]thiophen-2-yl)prop-2-yn-1-yl)amino)-3-(methoxy-d3)phenyl)dimethylphosphine sulfide] |  | 6.74 | 
17 | COc1cc([S@](=N)(=O)C(F)F)ccc1NCC#Cc1sc2c(N[C@@H]3CCN(C)C[C@@H]3F)cccc2c1CC(F)(F)F [Example 51, (S)-(difluoromethyl)(4-((3-(7-(((3S,4R)-3-fluoro-1-methylpiperidin-4-yl)amino)-3-(2,2,2-trifluoroethyl)benzo[b]thiophen-2-yl)prop-2-yn-1-yl)amino)-3-methoxyphenyl)(imino)-16-sulfanone] |  | 6.73 | 
18 | COc1cc([S@@](=N)(=O)C(F)F)ccc1NCC#Cc1sc2c(N[C@@H]3CCN(C)C[C@@H]3F)cccc2c1CC(F)(F)F [Example 52, (R)-(difluoromethyl)(4-((3-(7-(((3S,4R)-3-fluoro-1-methylpiperidin-4-yl)amino)-3-(2,2,2-trifluoroethyl)benzo[b]thiophen-2-yl)prop-2-yn-1-yl)amino)-3-methoxyphenyl)(imino)-16-sulfanone] |  | 6.87 | 
19 | COc1cc(S(C)(=O)=O)ccc1NCC#Cc1cc2c(N[C@@H]3CCN(C)C[C@@H]3F)cccc2n1CC(F)(F)F [Ref-1a, reference compound] | 7.30 |  | 
